Results from patent US5571806A, “Dibenz[b,f][1,4]oxazepin(and thiazepin)-11(10H)-ones and-thiones and their use in the prevention or treatment of HIV infection” (Boehringer Ingelheim Pharmaceuticals, Inc., priority 1994, dated 1996).
Read-outs that look alike come from different tables or passages of the source.

Tests used:
[1] = target: T1, HIV-1 reverse transcriptase (Human immunodeficiency virus type 1 group M subtype B, UniProt P03367); test: Reverse Transcriptase (RT) Assay (RNA-dependent DNA polymerase activity); assay type: biochemical, Human Immunodeficiency Virus (HIV-1), LAV strain; conditions: read-out: RT Inhibition (% @ 10 μg/ml)
T1 construct: Reverse transcriptase enzyme from the LAV strain of Human Immuno-deficiencyVirus (HIV-1); made in house; host or cells: E. coli JM109 (species of the strain is own knowledge), DNA clone pBRTprtl+ in expression vector pIBI21 (lac promoter)
From the text: As stated before, the compounds of formula I inhibit the enzymatic activity of HIV-1 RT. Based upon testing of these compounds, as described below, it is known that they inhibit the RNA-dependent DNA polymerase activity of HIV RT.
Utilizing the Reverse Transcriptase (RT) Assay described below, compounds can be tested for their ability to inhibit the RNA-dependent DNA polymerase activity of HIV RT. Certain specific compounds, described in the Examples which appear below, were so tested.
Among the enzymes for which Human Immunodeficiency Virus (HIV-1) encodes is a reverse transcriptase (1), so-named because it transcribes a DNA copy from an RNA template. This activity can be quantitatively measured in a cell-free enzyme assay which has been previously described (2), and is based upon the observation that reverse transcriptase is able to use a synthetic template [poly r(C) primed with oligo d(G)] to transcribe a radio-labelled, acid-precipitable DNA strand utilizing ^3 H-dGTP as a substrate. […]
a) Preparation of the enzyme
Reverse transcriptase enzyme from the LAV strain of Human Immuno-deficiencyVirus (HIV-1) (1) was isolated from the bacterial strain JM109 (3) expressing the DNA clone pBRTprtl+(2) which is under the control of the lac promotor in the expression vector pIBI21 (4). An overnight culture grown in 2XYT medium (37° C., 225 rpm) (5) supplemented with […] ampicillin for positive selection is inoculated at a 1:40 dilution into M9 medium supplemented with 10 mg/ml thiamine, 0.5% casamino acids, and […] ampicillin (5). The culture is incubated (37° C., 225 rpm) until it reaches an OD540 of 0.3-0.4. At that time the repressor inhibitor IPTG (isopropyl b-D-thiogalactopyranoside) is added to 0.5 mM and incubated for 2 additional hours. Bacteria are pelletted, resuspended in a 50 mM Tris, 0.6 mM EDTA, 0.375M NaCl buffer and digested by the addition of lysozyme (1 mg/ml) for 30 minutes on ice. The cells are lysed by the addition to 0.2% NP-40 and brought to 1M NaCl.
After removal of the insoluble debris by centrifugation, the protein is precipitated by the addition of 3 volumes of saturated aqueous ammonium sulfate. The enzyme is pelleted, resuspended in RT buffer (50 mM Tris pH 7.5, 1 mM EDTA, 5 mMDTT, 0.1% NP-40, 0.1M NaCl, and 50% glycerol) and stored at -70° C. for further use. […]
b) Composition of 2X concentrated stock reaction mixture
Stock Reagent 2X Mix Concentration
[poly r(C)/oligo d(G)](5:1)
The 2X concentrated stock reaction mixture is aliquoted and stored at -20° C. The mixture is stable and thawed for use in each assay. This enzyme assay has been adapted to a 96 well microtiter plate system, and has been previously described (6). Tris buffer (50 mM, pH 7.4), vehicle (solvent diluted to match the compound dilution), or compounds in vehicle are dispensed into 96-well microtiter plates (10 μl/well; 3 wells/compound). The HIV RT enzyme is thawed, diluted in 50 mM Tris pH 7.4 so that fifteen μl of diluted enzyme contain 0.001 Unit (one unit is that amount of enzyme to transform 1 micromole of substrate per minute at 25° C.), and 15 μl are dispensed per well. Twenty μl of 0.12-0.5M EDTA are added to the first three wells of the microtiter plate. EDTA chelates the Mg^++ present and prevents reverse transcription. This group serves as background polymerization which is subtracted from all other groups. Twenty-five μl of the 2X reaction mixture are added to all wells and the assay is allowed to incubate at room temperature for 60 minutes. The assay is terminated by precipitating the DNA in each well with 50μl of 10% trichloracetic acid (TCA) in 1% sodium pyrophosphate. The microtiter plate is incubated for 15 minutes at 4° C. and the precipitate is fixed onto #30 glass fiber paper (Schleicher & Schuell) using a Skatron semi-automatic harvester. […]

HIV-1 = test: Human T Cell Culture Assay (HIV-1 induced syncytia formation in C8166 cells); assay type: cell-based, HIV-1 HTLV-IIIB strain (human C8166 T-cells); conditions: HTLV-IIIB, four days after virus challenge, compound concentration not given
Protocol: In order to confirm that compounds which are active in the RT Assay also have the ability to inhibit HIV replication in a living system, a compound of formula I was also tested in the human T-Cell Culture Assay described below.
Assay Theory: Formation of syncytia is a feature of in vitro cultures of CD4+ T-cells infected with HIV-1. In this assay, T-cells are treated with a putative replication inhibiting compound and then infected with HIV-1. After incubation the culture is checked for the formation of syncytia. The absence or reduction is the number of syncytia is used as a measure of the test compound's ability to inhibit HIV replication.
Assay Method: The target cells, designated C8166, are a subclone of human lymphoma cells of T-cell origin and are established at an initial density of 5×10^4 per 100 μl in RPMI 1640 (+10% fetal bovine serum) culture medium in 96 well flat bottom plates. A selected amount of test compound, dissolved in DMSO is included. After 24 hours, 50-100 TCID50 's (the dose that results in induced effect in 50% of test cultures) of the HTLV-IIIB strain of HIV-1 (2) are innoculated into each culture. Control cultures receive compound or virus only. […] The percent inhibition by the test compound is determined by comparison with control values. […]

[2] = 10 μg/ml, poly r(C)/oligo d(G) template, 60 minutes, room temperature

Row | SMILES | inhibition at 10 µg/mL [1, 2] | also measured
1 | O=C1c2ccccc2Oc2ccccc2N1C(F)=CI [Example 47] | 92% | 
2 | Nc1ccc2c(c1)C(=O)Nc1ccccc1O2 [Example 14] | 85% | 
3 | O=C1c2ccccc2Oc2ccccc2N1CCF [Example 46] | 93% | 
4 | O=C1c2ccccc2Oc2ccccc2N1CC(F)(F)F [Example 48] | 87% | 
5 | O=C1Nc2ccccc2Oc2ccccc21 [Example 7] | 22% | 
6 | Nc1ccc2c(c1)Oc1ccccc1NC2=O [Example 23] | 25% | 
7 | CCN1C(=O)c2ccccc2Oc2ccccc21 [Example 8] | 100% | 
8 | CCN1C(=O)c2cc(N)ccc2Oc2ccc(C)cc21 [Example 19] | 100% | 
9 | Cc1ccc2c(c1)Oc1ccc(N)cc1C(=O)N2C [Example 6, 2-Amino-7,10-Dimethyldibenz[b,f][1,4]Oxazepin-11(10H)-One] |  | inhibition at 10 µg/mL [1]: 100%
10 | Cc1ccc2c(c1)Oc1ccc(N)cc1C(=O)N2 [Example 30] | 96% | 
11 | C=CCN1C(=O)c2ccccc2Oc2cc(N)ccc21 [Example 29] |  | inhibition at 10 µg/mL [1]: 89%
12 | CN1C(=O)c2ccccc2Sc2ccccc21 [Example 49] | 94% | 
13 | CSCCN1C(=O)c2ccccc2Oc2ccccc21 [Example 36] | 85% | 
14 | CN1C(=O)c2ccccc2Oc2cc(N)ccc21 [Example 24] | 44% | 
15 | CNc1ccc2c(c1)C(=O)Nc1ccccc1O2 [Example 28] | 30% | 
16 | CCCN1C(=O)c2ccccc2Sc2ccccc21 [Example 5, 10-n-Propyl-Dibenz[b,f][1.4]Thiazepin-11(10H)-One] | 98% | 
17 | NC(=O)CN1C(=O)c2cc(N)ccc2Oc2ccccc21 [Example 15] | 82% | 
18 | CCCN1C(=O)c2ccccc2Oc2ccccc21 [Example 1, 10-Propyl-10H-Dibenz[b,f][1,4]Oxazepin-11-One] | 100% | T-Cell Culture Assay (% inhibition) (HIV-1): 93%
19 | CCOc1ccc2c(c1)Oc1ccccc1C(=O)N2CC [Example 33] | 74% | 
20 | Nc1ccc2c(c1)Oc1ccccc1C(=O)N2 [Example 21] | 3% | 
21 | CCN1C(=O)c2cc(N)ccc2Oc2ccc(Cl)cc21 [Example 20] | 95% | 
22 | C=C(C)CN1C(=O)c2ccccc2Oc2ccccc21 [Example 11] | 77% | 
23 | CCN1C(=O)c2cc(N)ccc2Oc2ccccc21 [Example 16] | 100% | 
24 | CN1C(=O)c2cc(N)ccc2Oc2ccccc21 [Example 22] | 99% | 
25 | CSCCN1C(=O)c2cc(Cl)ccc2Oc2ccccc21 [Example 41] | 49% | 

Row | SMILES | inhibition at 10 µg/mL [1, 2] | also measured
26 | COc1ccc2c(c1)Oc1ccccc1C(=O)N2 [Example 44] | 27% | 
27 | CCOc1ccc2c(c1)Oc1ccccc1C(=O)N2 [Example 42] | 30% | 
28 | Cc1ccc2c(c1)Oc1ccccc1C(=O)N2C[S+](C)[O-] (stereo not drawn) [Example 40] | 77% | 
29 | Nc1ccc2c(c1)C(=O)Nc1cc(Cl)ccc1O2 [Example 17] | 67% | 
30 | CSCCN1C(=O)c2ccc(Cl)cc2Oc2ccccc21 [Example 38] | 83% | 
31 | CSCN1C(=O)c2ccc(Cl)cc2Oc2ccccc21 [Example 37] | 98% | 
32 | CCOC(=O)CN1C(=O)c2ccccc2Oc2ccccc21 [Example 43] | 76% | 
33 | CN1C(=O)c2ccc(N)cc2Oc2ccccc21 [Example 25] | 26% | 
34 | C=CCN1C(=O)c2ccccc2Oc2ccccc21 [Example 9] | 98% | 
35 | CSCN1C(=O)c2ccccc2Oc2ccccc21 [Example 34] | 100% | 
36 | CCCN1C(=S)c2ccccc2Oc2ccccc21 [Example 3, 10 -Propyl-10H-Dibenz [b,f][1,4]Oxazepin-11-Thione] | 94% | 
37 | CC(C)N1C(=O)c2ccccc2Oc2ccccc21 [Example 2, 10-Isopropyl-10H-Dibenz[b,f][1,4]Oxazepin-11-One] | 100% | 
38 | C[S+]([O-])CN1C(=O)c2ccccc2Oc2ccccc21 (stereo not drawn) [Example 35] | 58% | 
39 | COc1ccc2c(c1)Oc1cccc(OC)c1C(=O)N2 [Example 45] | 44% | 
40 | Cc1ccc2c(c1)NC(=O)c1cc(N)ccc1O2 [Example 18] | 71% | 
41 | Cc1ccc2c(c1)Oc1ccccc1C(=O)N2CC(N)=O [Example 31] | 77% | 
42 | CN1C(=O)c2ccccc2Oc2ccccc21 [Example 10] | 93% | 
43 | COc1cccc2c1Oc1ccccc1N(CC(N)=O)C2=O [Example 13] | 32% | 
44 | NC(=O)CN1C(=O)c2ccccc2Sc2ccccc21 [Example 50] | 66% | 
45 | CCOc1ccc2c(c1)Oc1ccccc1C(=O)N2C [Example 32] | 77% | 
46 | CNc1ccc2c(c1)C(=O)N(C)c1ccccc1O2 [Example 26] | 75% | 
47 | CCC(=O)N1C(=O)c2ccccc2Oc2ccccc21 [Example 12] | 44% | 
48 | C=CCN1C(=O)c2cc(N)ccc2Oc2ccccc21 [Example 27] | 100% | 
49 | CSCCN1C(=O)c2ccccc2Oc2cc(C)ccc21 [Example 39] | 95% | 
50 | O=C1Nc2ccccc2Sc2ccccc21 [Example 4, Dibenz[b,f][1,4]Thiazepin-11(10H)-One] | 43% | 
